Assay results taken from patent US20250388543A1, “HETEROARYL COMPOUNDS FOR THE TREATMENT OF PAIN” (VERTEX PHARMACEUTICALS INCORPORATED, priority 2022, published 2025).

The molecules below were run against human NaV 1.8 (Homo sapiens, UniProt Q9Y5Y9) (assay: E-VIPR Assay Detecting and Measuring NaV Inhibition Properties). Details: HEK cells expressing a truncated form of human NaV 1.8 with full channel activity; electrical stimulation, membrane-potential FRET dyes; 30 minutes compound incubation; read-out: measured IC50 value in the E-VIPR Assay.
Sequence of human NaV 1.8 (Q9Y5Y9 126-1722 limits assumed): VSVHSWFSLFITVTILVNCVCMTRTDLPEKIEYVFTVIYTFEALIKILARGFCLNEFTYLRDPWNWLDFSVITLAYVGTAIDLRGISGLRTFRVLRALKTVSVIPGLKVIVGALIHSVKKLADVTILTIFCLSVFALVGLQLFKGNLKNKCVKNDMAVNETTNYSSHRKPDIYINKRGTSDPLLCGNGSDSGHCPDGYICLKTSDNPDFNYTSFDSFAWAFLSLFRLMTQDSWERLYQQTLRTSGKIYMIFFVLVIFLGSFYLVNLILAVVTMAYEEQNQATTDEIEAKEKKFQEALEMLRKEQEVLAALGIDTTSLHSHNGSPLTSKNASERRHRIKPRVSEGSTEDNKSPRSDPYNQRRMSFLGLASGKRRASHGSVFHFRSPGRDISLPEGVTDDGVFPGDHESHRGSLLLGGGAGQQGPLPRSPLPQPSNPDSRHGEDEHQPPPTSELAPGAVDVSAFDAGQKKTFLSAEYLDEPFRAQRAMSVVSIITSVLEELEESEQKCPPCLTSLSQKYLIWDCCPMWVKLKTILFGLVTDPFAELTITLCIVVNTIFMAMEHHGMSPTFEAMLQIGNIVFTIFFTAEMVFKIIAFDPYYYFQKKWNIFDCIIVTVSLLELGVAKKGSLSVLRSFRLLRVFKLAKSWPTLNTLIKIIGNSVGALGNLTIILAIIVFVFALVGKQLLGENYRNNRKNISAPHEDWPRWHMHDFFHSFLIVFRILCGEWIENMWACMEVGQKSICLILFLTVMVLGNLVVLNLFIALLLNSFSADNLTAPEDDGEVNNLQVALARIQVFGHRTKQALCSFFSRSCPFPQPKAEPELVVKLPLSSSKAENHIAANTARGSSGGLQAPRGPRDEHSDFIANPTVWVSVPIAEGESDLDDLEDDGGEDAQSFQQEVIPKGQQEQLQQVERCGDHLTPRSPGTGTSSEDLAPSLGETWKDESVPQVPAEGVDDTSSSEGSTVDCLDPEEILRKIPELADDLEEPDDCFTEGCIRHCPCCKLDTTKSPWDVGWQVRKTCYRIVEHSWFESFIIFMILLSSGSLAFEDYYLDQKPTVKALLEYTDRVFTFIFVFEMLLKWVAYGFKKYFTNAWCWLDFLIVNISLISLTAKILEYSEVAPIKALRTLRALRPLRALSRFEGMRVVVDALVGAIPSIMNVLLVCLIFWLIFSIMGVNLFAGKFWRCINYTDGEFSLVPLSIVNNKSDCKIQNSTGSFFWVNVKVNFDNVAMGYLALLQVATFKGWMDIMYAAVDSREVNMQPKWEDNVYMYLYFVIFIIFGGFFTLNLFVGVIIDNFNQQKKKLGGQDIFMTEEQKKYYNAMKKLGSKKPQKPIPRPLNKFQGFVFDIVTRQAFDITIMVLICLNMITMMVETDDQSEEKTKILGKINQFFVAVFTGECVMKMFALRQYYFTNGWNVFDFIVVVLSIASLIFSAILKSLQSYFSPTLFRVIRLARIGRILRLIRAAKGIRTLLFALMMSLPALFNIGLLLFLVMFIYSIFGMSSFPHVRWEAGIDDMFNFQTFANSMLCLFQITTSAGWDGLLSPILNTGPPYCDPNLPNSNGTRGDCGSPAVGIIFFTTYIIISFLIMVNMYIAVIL
Type: cell-based
Excerpt: E-VIPR Assay Detecting and Measuring NaV Inhibition Properties
Sodium ion channels are voltage-dependent proteins that can be activated by inducing membrane voltage changes by applying electric fields. The electrical stimulation instrument and methods of use, referred to as E-VIPR, are described in International Publication No. WO 2002/008748 A3 and C.-J. Huang et al. Characterization of voltage-gated sodium channel blockers by electrical stimulation and fluorescence detection of membrane potential, 24 Nature Biotech. 439-46 (2006), both of which are incorporated by reference in their entirety. The instrument comprises a microtiter plate handler, an optical system for exciting the coumarin dye while simultaneously recording the coumarin and oxonol emissions, a waveform generator, a current- or voltage-controlled amplifier, and parallel electrode pairs that are inserted into assay plate wells. Under integrated computer control, this instrument passes user-programmed electrical stimulus protocols to cells within the wells of the microtiter plate.
16-20 hours prior to running the assay on E-VIPR, HEK cells expressing a truncated form of human NaV 1.8 with full channel activity were seeded into microtiter 384-well plates, pre-coated with matrigel, at a density of 25,000 cells per well. 2.5-5% KIR2.1 BacMam virus was added to the final cell suspension before seeding into cell plates. HEK cells were grown in Dulbecco's Modified Eagle's Medium (DMEM) supplemented with 10% FBS (Fetal Bovine Serum, qualified; Sigma #F4135), 1% NEAA (Non-Essential Amino Acids, Gibco #11140), 1% HEPES (Gibco #15630), 1% Pen-Strep (Penicillin-Streptomycin; Gibco #15140) and 5 μg/ml Blasticidin (Gibco #R210-01). Cells were expanded in 5-layer CellSTACK culture chambers or cell culture flasks with vented caps, with 90-95% humidity and 5% CO2.
Reagents and Stock Solutions:
100 mg/mL Pluronic F-127 (Sigma #P2443), in dry DMSO
Compound Plates: Corning 384-well Polypropylene Round Bottom #3656
Cell Plates: 384-well tissue culture treated plates (Greiner #781091-2B)
2.5-5% KIR 2.1 Bacmam virus (produced in-house), prepared as described in Section 3.3 of J. A. Fornwald et al., Gene Expression in Mammalian Cells Using BacMam, a Modified Baculovirus System, 1350 Methods in Molecular Biology 95-116 (2016), the entire contents of which are incorporated by reference. The concentration used can be dependent on viral titer of each batch.
5 mM DiSBAC6(3), a voltage sensitive oxonol acceptor (CAS number 169211-44-3; 5-[3-(1,3-dihexylhexahydro-4,6-dioxo-2-thioxo-5-pyrimidinyl)-2-propen-1-ylidene]-1,3-dihexyldihydro-2-thioxo-4,6(1H,5H)-pyrimidinedione), in dry DMSO. The preparation of DiSBAC6(3) is analogous to that of DiSBAC4(3) as described in Voltage Sensing by Fluorescence Resonance Energy Transfer in Single Cells, Gonzalez, J. E. and Tsien, R. Y. (1995) Biophys. J. 69, 1272-1280.
5 mM CC2-DMPE, a commercially available membrane-bound coumarin phospholipid FRET donor (ThermoFisher Scientific catalog number K1017, CAS number 393782-57-5; tetradecanoic acid, 1,1′-[(1R)-1-[8-(6-chloro-7-hydroxy-2-oxo-2H-1-benzopyran-3-yl)-3-hydroxy-3-oxido-8-oxo-2,4-dioxa-7-aza-3-phosphaoct-1-yl]-1,2-ethanediyl]ester) was prepared in dry DMSO. See also, Improved indicators of cell membrane potential that use fluorescence resonance energy transfer, Gonzalez, J. E. and Tsien, R. Y. (1997) Chem. Biol. 4, 269-277.
Voltage Assay Background Suppression Compound (VABSC-1) is prepared in H2O (89-363 mM, range used to maintain solubility)
Human Serum (HS, Millipore #S1P1-01KL, or Sigma SLBR5469V and SLBR5470V as a 50%/50% mixture, for 25% assay final concentration)
Sodium Chloride 160 mM (9.35 g/L), Potassium Chloride, 4.5 mM (0.335 g/L), Glucose 10 mM (1.8 g/L), Magnesium Chloride (Anhydrous) 1 mM (0.095 g/L), Calcium Chloride 2 mM (0.222 g/L), HEPES 10 mM (2.38 g/L) in water. […]
Work on `CCOC(=O)c1c(-c2cc(C(F)(F)F)ncc2N2CCCC(F)(F)CC2)[nH]c(C)c(C)c1=O` [Compound 34, ethyl 2-[5-(4,4-difluoroazepan-1-yl)-2-(trifluoromethyl)-4-pyridyl]-5,6-dimethyl-4-oxo-1H-pyridine-3-carboxylate] yielded an IC50 of 2000 to 5000 nM.
Molecule `CCOC(=O)c1c(C)[nH]c(-c2c(Oc3ccc(F)c(F)c3C)ncc(C(F)(F)F)c2C)c(C)c1=O` [Compound 43, ethyl 6-[2-(3,4-difluoro-2-methyl-phenoxy)-4-methyl-5-(trifluoromethyl)-3-pyridyl]-2,5-dimethyl-4-oxo-1H-pyridine-3-carboxylate] has an IC50 of 500 to 2000 nM.
In the case of `COc1c(Oc2cc(C(F)(F)F)c(F)cc2-c2cc(=O)nc(C)[nH]2)ccc(F)c1F` [Compound 55, 6-[2-(3,4-difluoro-2-methoxy-phenoxy)-5-fluoro-4-(trifluoromethyl)phenyl]-2-methyl-1H-pyrimidin-4-one], the IC50 is reported as no less than 5000 nM.
Work on `Cc1cc(=O)cc(-c2cc3ccccc3nc2OCc2ccccc2)[nH]1` [Compound 105, 2-(2-benzyloxy-3-quinolyl)-6-methyl-1H-pyridin-4-one] yielded an IC50 of no less than 5000 nM.
Work on `Cc1cc(=O)cc(-c2cnc(C(F)(F)F)nc2C2CCC(F)(F)CC2)[nH]1` [Compound 109, 2-[4-(4,4-difluorocyclohexyl)-2-(trifluoromethyl)pyrimidin-5-yl]-6-methyl-1H-pyridin-4-one] yielded an IC50 of 2000 to 5000 nM.
`Cc1c(Oc2nc3ccccc3cc2-c2cc(=O)cc[nH]2)ccc(F)c1F` [Compound 115, 2-[2-(3,4-difluoro-2-methyl-phenoxy)-3-quinolyl]-1H-pyridin-4-one] gave an IC50 of 500 to 2000 nM.
With `Cc1[nH]c(-c2ccc(C(C)(C)C)cc2OCC2CC2(F)F)cc(=O)c1C` (stereo not drawn) [Compound 135, 6-[4-tert-butyl-2-[(2,2-difluorocyclopropyl)methoxy]phenyl]-2,3-dimethyl-1H-pyridin-4-one] the IC50 was 500 to 2000 nM.
`Cc1cc(=O)cc(-c2ccc(C(C)(C)C)cc2OCC2CC2(F)F)[nH]1` (stereo not drawn) [Compound 136] gave an IC50 of 2000 to 5000 nM.
With `Cc1[nH]c(-c2cc(C(F)(F)F)ncc2C2CCC(C(F)(F)F)CC2)cc(=O)c1C` (stereo not drawn) [Compound 142, 2,3-dimethyl-6-[2-(trifluoromethyl)-5-[4-(trifluoromethyl)cyclohexyl]-4-pyridyl]-1H-pyridin-4-one] the IC50 was 500 to 2000 nM.
For `Cc1cc(=O)cc(-c2ccccc2OCC2CC2)[nH]1` [Compound 146, 2-[2-(cyclopropylmethoxy)phenyl]-6-methyl-1H-pyridin-4-one], the IC50 was no less than 5000 nM.
For `Cc1cc(=O)cc(-c2ccccc2C2CC2)[nH]1` [Compound 148, 2-(2-cyclopropylphenyl)-6-methyl-1H-pyridin-4-one], the IC50 was no less than 5000 nM.
`Cc1cc(=O)cc(-c2cc(C(F)(F)F)cnc2N2CCCC(F)(F)CC2)[nH]1` [Compound 156, 2-[2-(4,4-difluoroazepan-1-yl)-5-(trifluoromethyl)-3-pyridyl]-6-methyl-1H-pyridin-4-one] was tested, and the IC50 was 500 to 2000 nM.
In the case of `Cc1cc(=O)cc(-c2cc(C(F)(F)F)cnc2N2CCC(F)(F)CC2)[nH]1` [Compound 157, 2-[2-(4,4-difluoro-1-piperidyl)-5-(trifluoromethyl)-3-pyridyl]-6-methyl-1H-pyridin-4-one], the IC50 is reported as no less than 5000 nM.
For `Cc1cc(C(C)(C)C)cc(Oc2ccc(F)cc2O)c1-c1cc(=O)cc[nH]1` [Compound 160, 2-[4-tert-butyl-2-(4-fluoro-2-hydroxy-phenoxy)-6-methyl-phenyl]-1H-pyridin-4-one], the IC50 was no less than 5000 nM.
In the case of `Cc1[nH]c(-c2c(Oc3ccc(F)c(F)c3C)ncc(C(F)(F)F)c2C)cc(=O)c1-c1cn(C)c(C)n1` [Compound 162, 6-[2-(3,4-difluoro-2-methyl-phenoxy)-4-methyl-5-(trifluoromethyl)-3-pyridyl]-3-(1,2-dimethylimidazol-4-yl)-2-methyl-1H-pyridin-4-one], the IC50 is reported as 500 to 2000 nM.
In the case of `CCOC(=O)c1c(-c2cc3ccccc3nc2N2CCC[C@@H](OC)C2)[nH]c(C)c(OC)c1=O` [Compound 224, ethyl 5-methoxy-2-[2-[(3R)-3-methoxy-1-piperidyl]-3-quinolyl]-6-methyl-4-oxo-1H-pyridine-3-carboxylate], the IC50 is reported as 2000 to 5000 nM.
`CCOC(=O)c1c(-c2cc3ccccc3nc2N2CCCC(F)(F)C2)[nH]c(C)c(OC)c1=O` [Compound 226, ethyl 2-[2-(3,3-difluoro-1-piperidyl)-3-quinolyl]-5-methoxy-6-methyl-4-oxo-1H-pyridine-3-carboxylate] gave an IC50 of 2000 to 5000 nM.
Work on `CCOC(=O)c1c(-c2cc3ccccc3nc2N2CCCOCC2)[nH]c(C)c(OC)c1=O` [Compound 227, ethyl 5-methoxy-6-methyl-2-[2-(1,4-oxazepan-4-yl)-3-quinolyl]-4-oxo-1H-pyridine-3-carboxylate] yielded an IC50 of 2000 to 5000 nM.
`CCOC(=O)c1c(-c2cc3ccccc3nc2N2C[C@@H]3CCO[C@@H]3C2)[nH]c(C)c(OC)c1=O` [Compound 228, ethyl 2-[2-[(3aS,6aS)-2,3,3a,4,6,6a-hexahydrofuro[2,3-c]pyrrol-5-yl]-3-quinolyl]-5-methoxy-6-methyl-4-oxo-1H-pyridine-3-carboxylate] showed an IC50 of no less than 5000 nM.
`CCOC(=O)c1c(-c2cc3ccccc3nc2N2CCC(OC)CC2)[nH]c(C)c(OC)c1=O` [Compound 229, ethyl 5-methoxy-2-[2-(4-methoxy-1-piperidyl)-3-quinolyl]-6-methyl-4-oxo-1H-pyridine-3-carboxylate] was tested, and the IC50 was 2000 to 5000 nM.
In the case of `CCOC(=O)c1c(-c2cc3ccccc3nc2N2CCC[C@H](OC)C2)[nH]c(C)c(OC)c1=O` [Compound 231, ethyl 5-methoxy-2-[2-[(3S)-3-methoxy-1-piperidyl]-3-quinolyl]-6-methyl-4-oxo-1H-pyridine-3-carboxylate], the IC50 is reported as 2000 to 5000 nM.
Molecule `CCOC(=O)c1c(-c2cc3ccccc3nc2N2CCC(C)(C)C2)[nH]c(C)c(OC)c1=O` [Compound 238, ethyl 2-[2-(3,3-dimethylpyrrolidin-1-yl)-3-quinolyl]-5-methoxy-6-methyl-4-oxo-1H-pyridine-3-carboxylate] has an IC50 of 500 to 2000 nM.
For `CCOC(=O)c1c(-c2cc3ccccc3nc2N2CCC(F)(F)C2)[nH]c(C)c(OC)c1=O` [Compound 242, ethyl 2-[2-(3,3-difluoropyrrolidin-1-yl)-3-quinolyl]-5-methoxy-6-methyl-4-oxo-1H-pyridine-3-carboxylate], the IC50 was 2000 to 5000 nM.
`CCOC(=O)c1c(-c2cc3ccccc3nc2N2CC[C@H](OC)C2)[nH]c(C)c(OC)c1=O` [Compound 244, ethyl 5-methoxy-2-[2-[(3S)-3-methoxypyrrolidin-1-yl]-3-quinolyl]-6-methyl-4-oxo-1H-pyridine-3-carboxylate] was tested, and the IC50 was 2000 to 5000 nM.
Work on `CCOC(=O)c1c(-c2cc3ccccc3nc2N2CCOCC2)[nH]c(C)c(OC)c1=O` [Compound 249, ethyl 5-methoxy-6-methyl-2-(2-morpholino-3-quinolyl)-4-oxo-1H-pyridine-3-carboxylate] yielded an IC50 of no less than 5000 nM.
`CCOC(=O)c1c(-c2cc3ccccc3nc2N2CCCCC2)[nH]c(C)c(OC)c1=O` [Compound 250, ethyl 5-methoxy-6-methyl-4-oxo-2-[2-(1-piperidyl)-3-quinolyl]-1H-pyridine-3-carboxylate] was tested, and the IC50 was 500 to 2000 nM.
With `Cc1cc(=O)[nH]c(-c2nc(C(F)(F)F)ccc2N2CCCC(F)(F)CC2)n1` [Compound 252, 2-[3-(4,4-difluoroazepan-1-yl)-6-(trifluoromethyl)-2-pyridyl]-4-methyl-1H-pyrimidin-6-one] the IC50 was no less than 5000 nM.
